Laboratory results: patent US20220324835A1 (Nurix Therapeutics, Inc., priority 2018, published 2022)

How the values were obtained:
Cbl-b [1] = target: T1, Cbl-b (Homo sapiens, UniProt Q13191); experiment: Cbl-b inhibition assay (Cbl-b activity assay, FRET, Biological Example 1; 100 mM NaCl, 60 nM Src kinase); format: biochemical; details: upper bound stated in text lists; read-out: IC50 values in the Cbl-b inhibition assay of Biological Example 1
Outline: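 Steps: Src kinase phosphorylates N-terminal biotinylated Avi-tagged Cbl-b; phosphorylated Cbl-b binds Bodipy-fluorescein ubiquitin-loaded UbcH5B; streptavidin-terbium on Cbl-b sits close to the fluorescein label, producing FRET. Inhibitors block UbcH5B-Ub binding.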

Cbl-b [2] = target: T1, Cbl-b; experiment: Cbl-b activity assay (Cbl-b inhibition assay), TR-FRET of Cbl-b interaction with UbcH5B-Ub; format: biochemical
Outline: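 TR-FRET readout of Cbl-b binding to Bodipy-fluorescein N-terminally labeled Ub conjugated to UbcH5B C85K, measured with compound present. After compound incubation, 60 nM Src kinase with 1 mM ATP and 5 mM MgCl2 (final) was added for 1.5 h, then a further 1 h incubation; asterisked values used 50 mM NaCl buffer and 30 nM Src.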

Cbl-b (residues 36-427) = Cbl-b (residues 36-427) (Homo sapiens, UniProt Q13191); experiment: Cbl-b binding assay (SPR, Biacore T200); details: 20° C., 1:1 binding model
Cbl-b (residues 36-427), sequence (Q13191 36-427): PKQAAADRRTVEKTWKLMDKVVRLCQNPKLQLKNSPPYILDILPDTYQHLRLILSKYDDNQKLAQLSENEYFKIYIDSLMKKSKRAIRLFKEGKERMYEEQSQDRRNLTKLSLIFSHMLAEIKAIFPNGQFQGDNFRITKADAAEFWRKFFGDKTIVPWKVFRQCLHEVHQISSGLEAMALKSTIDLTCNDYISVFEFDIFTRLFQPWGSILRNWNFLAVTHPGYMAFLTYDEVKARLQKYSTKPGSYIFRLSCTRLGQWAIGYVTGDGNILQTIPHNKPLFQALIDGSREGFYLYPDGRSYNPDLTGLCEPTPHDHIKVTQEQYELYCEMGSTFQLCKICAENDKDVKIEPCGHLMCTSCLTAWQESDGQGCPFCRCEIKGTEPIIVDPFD
Outline: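 Affinities derived from global 1:1 steady-state or kinetic fits of double-referenced, solvent-corrected SPR data, 20 °C, NeutrAvidin-capture chip. Compound series (top 100 or 50 μM, 8–10 points) injected 50 s, 90–180 s dissociation. Asterisked values used 50 mM instead of 100 mM NaCl and 30 nM Src kinase.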

[3] = assay buffer with 100 mM NaCl, 60 nM Src kinase, read-out: Cbl-b activity IC50

T1 sequence (Q13191 36-427): as above

CC(Sc1nncn1C)c1cccc(N2Cc3ccc(Cl)cc3C2=O)c1 (stereo not shown) [Compound 163, 6-chloro-2-[3-[1-[(4-methyl-1,2,4-triazol-3-yl)sulfanyl]ethyl]phenyl]isoindolin-1-one]
IC50 (Cbl-b [1]): ≤ 10 µM | IC50 (Cbl-b [2]; * assay buffer containing 50 mM NaCl instead of 100 mM NaCl and 30 nM Src kinase instead of 60 nM, read-out: Cbl-b activity IC50 (μM)*): 3 to 10 µM | IC50 (Cbl-b [2]; [3]): 3 to 10 µM | Kd (Cbl-b (residues 36-427)): 3 to 10 µM

C[C@H](Sc1nncn1C)c1cccc(N2Cc3cc(Cl)ccc3C2=O)c1 [Compound 164, (S)-5-chloro-2-(3-(1-((4-methyl-4H-1,2,4-triazol-3-yl)thio)ethyl)phenyl)isoindolin-1-one]
IC50 (Cbl-b [1]): ≤ 1 µM | IC50 (Cbl-b [2]; [3]): 0.301 to 1 µM | Kd (Cbl-b (residues 36-427)): 1 to 3 µM

C[C@@H](Sc1nncn1C)c1cccc(N2Cc3c(cccc3C(F)(F)F)C2=O)c1 [Compound 166b, (R)-2-(3-(1-(4-methyl-4H-1,2,4-triazol-3-ylthio)ethyl)phenyl)-4-(trifluoromethyl)isoindolin-1-one]
IC50 (Cbl-b [1]): ≤ 10 µM | IC50 (Cbl-b [2]; [3]): 1 to 3 µM | Kd (Cbl-b (residues 36-427)): 3 to 10 µM

C[C@@H](Sc1nncn1C)c1cc(F)cc(N2Cc3c(cccc3C(F)(F)F)C2=O)c1 [Compound 168b, 2-[3-fluoro-5-[(1R)-1-[(4-methyl-1,2,4-triazol-3-yl)sulfanyl]ethyl]phenyl]-4-(trifluoromethyl)isoindolin-1-one]
IC50 (Cbl-b [1]): ≤ 10 µM | IC50 (Cbl-b [2]; [3]): 1 to 3 µM | Kd (Cbl-b (residues 36-427)): 1 to 3 µM

C[C@H](Sc1nncn1C)c1ccc(F)c(N2Cc3c(cccc3C(F)(F)F)C2=O)c1 [Compound 169, 2-[2-fluoro-5-[(1S)-1-[(4-methyl-1,2,4-triazol-3-yl)sulfanyl]ethyl]phenyl]-4-(trifluoromethyl)isoindolin-1-one]
IC50 (Cbl-b [1]): ≤ 10 µM | IC50 (Cbl-b [2]; [3]): 1 to 3 µM | Kd (Cbl-b (residues 36-427)): 1 to 3 µM

C[C@@H](Sc1nncn1C)c1ccnc(N2Cc3c(cccc3C(F)(F)F)C2=O)c1 [Compound 172b, (R)-2-(4-(1-((4-methyl-4H-1,2,4-triazol-3-yl)thio)ethyl)pyridin-2-yl)-4-(trifluoromethyl)isoindolin-1-one]
IC50 (Cbl-b [1]): ≤ 10 µM | IC50 (Cbl-b [2]; [3]): 3 to 10 µM | Kd (Cbl-b (residues 36-427)): > 10 µM

CC(Sc1nncn1C)c1cc(N)nc(N2Cc3c(cccc3C(F)(F)F)C2=O)c1 (stereo not shown) [Compound 175, 2-[6-amino-4-[1-[(4-methyl-1,2,4-triazol-3-yl)sulfanyl]ethyl]-2-pyridyl]-4-(trifluoromethyl)isoindolin-1-one]
IC50 (Cbl-b [1]): ≤ 10 µM | IC50 (Cbl-b [2]; [3]): 3 to 10 µM | Kd (Cbl-b (residues 36-427)): 3 to 10 µM

CC(CO)Nc1cc(C(C)Sc2nncn2C)cc(N2Cc3c(cccc3C(F)(F)F)C2=O)n1 (stereo not shown) [Compound 176, 2-[6-[(2-hydroxy-1-methyl-ethyl)amino]-4-[1-[(4-methyl-1,2,4-triazol-3-yl)sulfanyl]ethyl]-2-pyridyl]-4-(trifluoromethyl)isoindolin-1-one]
IC50 (Cbl-b [1]): ≤ 1 µM | IC50 (Cbl-b [2]; [3]): 0.301 to 1 µM | Kd (Cbl-b (residues 36-427)): 1 to 3 µM

CC(Sc1nncn1C)c1cc(NC[C@H](C)O)nc(N2Cc3c(cccc3C(F)(F)F)C2=O)c1 (stereo partly drawn) [Compound 177, 2-[6-[[(2S)-2-hydroxypropyl]amino]-4-[1-[(4-methyl-1,2,4-triazol-3-yl)sulfanyl]ethyl]-2-pyridyl]-4-(trifluoromethyl)iso-indolin-1-one]
IC50 (Cbl-b [1]): ≤ 10 µM | IC50 (Cbl-b [2]; [3]): 3 to 10 µM | Kd (Cbl-b (residues 36-427)): 3 to 10 µM

CCNc1cc(C(C)Sc2nncn2C)cc(N2Cc3c(cccc3C(F)(F)F)C2=O)n1 (stereo not shown) [Compound 178, 2-[6-(ethylamino)-4-[1-[(4-methyl-1,2,4-triazol-3-yl)sulfanyl]ethyl]-2-pyridyl]-4-(trifluoromethyl)isoindolin-1-one]
IC50 (Cbl-b [1]): ≤ 1 µM | IC50 (Cbl-b [2]; [3]): 0.301 to 1 µM | Kd (Cbl-b (residues 36-427)): 0.301 to 1 µM

CC(Sc1nncn1C)c1cc(NC2CCOC2)nc(N2Cc3c(cccc3C(F)(F)F)C2=O)c1 (stereo not shown) [Compound 179, 2-(4-(1-((4-methyl-4H-1,2,4-triazol-3-yl)thio)ethyl)-6-((tetrahydrofuran-3-yl)amino)pyridin-2-yl)-4-(trifluoromethyl)isoindolin-1-one]
IC50 (Cbl-b [1]): ≤ 10 µM | IC50 (Cbl-b [2]; [3]): 3 to 10 µM | Kd (Cbl-b (residues 36-427)): 3 to 10 µM

CNc1cc(C(C)Sc2nncn2C)cc(N2Cc3c(cccc3C(F)(F)F)C2=O)n1 (stereo not shown) [Compound 180, 2-[6-(methylamino)-4-[1-[(4-methyl-1,2,4-triazol-3-yl)sulfanyl]ethyl]-2-pyridyl]-4-(trifluoromethyl)isoindolin-1-one]
IC50 (Cbl-b [1]): ≤ 10 µM | IC50 (Cbl-b [2]; [3]): 1 to 3 µM | Kd (Cbl-b (residues 36-427)): 1 to 3 µM

Cn1cnnc1SC(CCO)c1cccc(NC(=O)c2cccc(C(F)(F)F)n2)c1 (stereo not shown) [Compound 181, N-(3-(3-hydroxy-1-((4-methyl-4H-1,2,4-triazol-3-yl)thio)propyl)phenyl)-6-(trifluoromethyl)picolinamide]
IC50 (Cbl-b [1]): ≤ 10 µM | IC50 (Cbl-b [2]; [3]): 1 to 3 µM | Kd (Cbl-b (residues 36-427)): 3 to 10 µM

C[C@H](Cc1nncn1C)c1cccc(NC(=O)c2cc3ccccc3cn2)c1 [Compound 182, (R)-N-(3-(1-(4-methyl-4H-1,2,4-triazol-3-yl)propan-2-yl)phenyl)isoquinoline-3-carboxamide]
IC50 (Cbl-b [1]): ≤ 0.5 µM | IC50 (Cbl-b [2]; [3]): 0.301 to 1 µM | Kd (Cbl-b (residues 36-427)): 0.301 to 1 µM

C[C@@H](Cc1nncn1C)c1cccc(NC(=O)c2cccc(C(F)(F)F)n2)c1 [Compound 183b, (S)-N-(3-(1-(4-methyl-4H-1,2,4-triazol-3-yl)propan-2-yl)phenyl)-6-(trifluoromethyl)picolinamide]
IC50 (Cbl-b [1]): ≤ 10 µM | IC50 (Cbl-b [2]; [3]): 0.1 to 0.3 µM | Kd (Cbl-b (residues 36-427)): 3 to 10 µM

C[C@H](Cc1nncn1C)c1cccc(NC(=O)c2cc(C(F)(F)F)ccn2)c1 [Compound 184, (R)-N-(3-(1-(4-methyl-4H-1,2,4-triazol-3-yl)propan-2-yl)phenyl)-4-(trifluoromethyl)picolinamide]
IC50 (Cbl-b [1]): ≤ 10 µM | IC50 (Cbl-b [2]; [3]): 1 to 3 µM | Kd (Cbl-b (residues 36-427)): 3 to 10 µM

C[C@@H](Cc1nncn1C)c1cccc(NC(=O)c2cc(S(C)(=O)=O)cc(C3CC3)n2)c1 [Compound 198b]
IC50 (Cbl-b [1]): ≤ 10 µM | IC50 (Cbl-b [2]; [3]): 3 to 10 µM | Kd (Cbl-b (residues 36-427)): 3 to 10 µM

C[C@H](Cc1nncn1C)c1cccc(NC(=O)c2cc(N[C@@H]3CC[C@H](O)C3)ccn2)c1 [Compound 204, 4-((1R,3S)-3-hydroxycyclopentylamino)-N-(3-((R)-1-(4-methyl-4H-1,2,4-triazol-3-yl)propan-2-yl)phenyl)picolinamide]
IC50 (Cbl-b [1]): ≤ 10 µM | IC50 (Cbl-b [2]; [3]): 1 to 3 µM | Kd (Cbl-b (residues 36-427)): 1 to 3 µM

C[C@H](Cc1nncn1C)c1cccc(NC(=O)c2cc(O[C@@H]3CC[C@H](O)C3)ccn2)c1 [Compound 207, 4-((1R,3S)-3-hydroxycyclopentyloxy)-N-(3-((R)-1-(4-methyl-4H-1,2,4-triazol-3-yl)propan-2-yl)phenyl)picolinamide]
IC50 (Cbl-b [1]): ≤ 1 µM | IC50 (Cbl-b [2]; [3]): 0.301 to 1 µM | Kd (Cbl-b (residues 36-427)): 1 to 3 µM

C[C@H](Cc1nncn1C)c1cccc(NC(=O)c2cc(N[C@H]3CC[C@@H](O)C3)ccn2)c1 [Compound 208, cis-4-(3-hydroxycyclopentylamino)-N-(3-((R)-1-(4-methyl-4H-1,2,4-triazol-3-yl)propan-2-yl)phenyl)picolinamide]
IC50 (Cbl-b [1]): ≤ 1 µM | IC50 (Cbl-b [2]; [3]): 0.301 to 1 µM | Kd (Cbl-b (residues 36-427)): 3 to 10 µM

C[C@@H](Cc1nncn1C)c1cccc(NC(=O)c2cc3cc(N4CCN(C)C(=O)C4)ccc3cn2)c1 [Compound 210, (S)-6-(4-methyl-3-oxopiperazin-1-yl)-N-(3-(1-(4-methyl-4H-1,2,4-triazol-3-yl)propan-2-yl)phenyl)isoquinoline-3-carboxamide 2,2,2-trifluoroacetate]
IC50 (Cbl-b [1]): ≤ 10 µM | IC50 (Cbl-b [2]; [3]): 3 to 10 µM | Kd (Cbl-b (residues 36-427)): 3 to 10 µM

C[C@H](Cc1nncn1C)c1cccc(NC(=O)c2cc(C(=O)N3C[C@@H](O)C[C@@H]3C)ccn2)c1 [Compound 223, 4-((2S,4S)-4-hydroxy-2-methylpyrrolidine-1-carbonyl)-N-(3-((R)-1-(4-methyl-4H-1,2,4-triazol-3-yl)propan-2-yl)phenyl)picolinamide]
IC50 (Cbl-b [1]): ≤ 10 µM | IC50 (Cbl-b [2]; [3]): 3 to 10 µM | Kd (Cbl-b (residues 36-427)): 3 to 10 µM

C[C@H](Cc1nncn1C)c1cccc(NC(=O)c2cc(C(=O)N3CC(S(C)(=O)=O)C3)ccn2)c1 [Compound 225, 4-(3-methanesulfonylazetidine-1-carbonyl)-N-[3-[(2R)-1-(4-methyl-4H-1,2,4-triazol-3-yl)propan-2-yl]phenyl]pyridine-2-carboxamide]
IC50 (Cbl-b [1]): ≤ 10 µM | IC50 (Cbl-b [2]; [3]): 1 to 3 µM | Kd (Cbl-b (residues 36-427)): 3 to 10 µM

C[C@H](Cc1nncn1C)c1cccc(NC(=O)c2cc(C(=O)NCC(C)(C)O)ccn2)c1 [Compound 226, (R)-N^4-(2-hydroxy-2-methylpropyl)-N^2-(3-(1-(4-methyl-4H-1,2,4-triazol-3-yl)propan-2-yl)phenyl)pyridine-2,4-dicarboxamide]
IC50 (Cbl-b [1]): ≤ 10 µM | IC50 (Cbl-b [2]; [3]): 3 to 10 µM | Kd (Cbl-b (residues 36-427)): 3 to 10 µM

C[C@H](Cc1nncn1C)c1cccc(NC(=O)c2cc(C(=O)N3CCC(C)(O)CC3)ccn2)c1 [Compound 227, (R)-4-(4-hydroxy-4-methylpiperidine-1-carbonyl)-N-(3-(1-(4-methyl-4H-1,2,4-triazol-3-yl)propan-2-yl)phenyl)picolinamide]
IC50 (Cbl-b [1]): ≤ 10 µM | IC50 (Cbl-b [2]; [3]): 1 to 3 µM | Kd (Cbl-b (residues 36-427)): 3 to 10 µM

C[C@H](Cc1nncn1C)c1cccc(NC(=O)c2cc(C(=O)N3CC[C@](C)(N)C3)ccn2)c1 [Compound 229, 4-((S)-3-amino-3-methylpyrrolidine-1-carbonyl)-N-(3-((R)-1-(4-methyl-4H-1,2,4-triazol-3-yl)propan-2-yl)phenyl)picolinamide]
IC50 (Cbl-b [1]): ≤ 10 µM | IC50 (Cbl-b [2]; [3]): 1 to 3 µM | Kd (Cbl-b (residues 36-427)): 1 to 3 µM
